Data from PubChem BioAssay AID1918942 (Molecular Pharmacology Branch, DTP, NCI, 2023).
pIC50: −log10 of the molar value. Values joined by “and” are separate entries in the source; they are usually repeats but may differ in a detail not shown here. Equal entries are not always repeated.

Test system: 743489-274-T-PDC complex spheroid viability
Experiment: Anticancer human tumor 743489-274-T-PDC patient-derived renal cell carcinoma cell line growth inhibition
Settings: for viability, T/C: stronger effect = lower value
From the text: Multicellular complex tumor spheroid response to LSD1 Inhibitor Iadademstat in combination with a variety of drugs and investigational agents in selected tumor cell lines
The current study was undertaken to assess response to LSD1 inhibitors in combination with standard-of-care drugs and investigational agents in solid tumor complex spheroid models as well as in the K-562 leukemia. Complex spheroids include a stromal component modeled by human endothelial cells (HUVEC) and fibroblasts modeled by human mesenchymal stem cells (MSCs). The concentration ranges selected for each drug and investigational agent were based upon clinically achievable concentrations if the clinical Cmax of the agent was known.
Compounds. The drugs and investigational agents used in this study are listed on Table 1. All of the agents used, including staurosporine (NSC755774) and gemcitabine (NSC613327), were obtained from the Developmental Therapeutics Program, NCI. FDA-approved anticancer drugs are available from the NCI at http://dtp.nci.nih.gov/branches/dscb/oncology_drugset_explanation.html. Drugs and investigational agents were >95% pure by proton nuclear magnetic resonance (NMR) and liquid chromatography/mass spectrometry (LC/MS). Stock solutions were prepared at 400x in DMSO, stored at -70 degrees C, and diluted in fresh medium prior to their use. The final concentration of DMSO in cell culture wells never exceeded 0.25% (v/v). The FDA-approved anticancer drug set is available from the Developmental Therapeutics Program at https://dtp.cancer.gov/organization/dscb/obtaining/available_plates.htm. All drugs and investigational agents were tested over a range starting from a high concentration at or near the clinical Cmax and decreasing in half-log increments. If the clinical Cmax for an agent had not been determined, the highest concentration tested was 10 microM.
Cell Lines. The patient-derived cancer cell (PDC) lines: 292921-168-R-J2-PDC, K24384-001-R-PDC, and 521955-158-R2-J5-PDC pancreatic carcinomas, 556581-035-R-J1 ovarian carcinoma, 324938-238-R-J1-PDC, 855422-203-R-J1-PDC and 883617-216-R-J1-PDC urothelial bladder carcinomas, 743489-274-T-PDC renal cell carcinoma, 138582-R-J1 Merkel cell tumor, K60290-347-R-J1 and K57222-313-R-J1-PDC glioblastomas, 653999-131-R-J2-PDC, LG0703-F948-PDC, and 349418-098-R-PDC non-small cell lung carcinomas, 885512-296-R-J2-PDC, 171881-019-R-J1-PDC breast carcinomas and 186277-243-T-J2-PDC and 233499-124-R-J2-PDC colon carcinomas were obtained from the NCI Patient-Derived Models Repository (PDMR, https://pdmr.cancer.gov). The established cell lines NCI/ADR-RES (RRID:CVCL_14520 and OVCAR-5 (RRID:CVCL_1628) ovarian carcinomas, 786-O (RRID:CVCL_1051) and A498 (RRID:CVCL_A498) renal cell carcinoma, NCI-H211 (ATCC, cat. CRL-5824; RRID:CVCL_1529), NCI-H196 (ATCC, cat. CRL-5823, RRID:CVCL_1509), SW 1271 (ATCC, cat. CRL-2177, RRID:CVCL_1716) and NCI-H1876 (ATCC, cat. CRL-5902, RRID:CVCL_1503) small cell lung carcinomas, MDA-MB-231 (RRID:CVCL_0062) and MDA-MB-468 (RRID:CVCL_0419)breast carcinomas (10-12). Pooled donor human umbilical vein endothelial cells (HUVEC, Lonza, cat. CC-2519) and human mesenchymal stem cells (hMSC, Lonza, cat. PT-2501) were purchased from Lonza (Walkersville, MD).
Cell Culture. All cells were maintained in an incubator at 37 degrees C and 5% CO2 with 95% humidity. The PDC lines were cultured according to standard operating procedures established by the NCI PDMR (https://pdmr.cancer.gov). Briefly all PDCs were thawed and cultured in Matrigel-coated flasks prepared with a working solution of 1X Ham's F-12 nutrient mix, without supplementation (Invitrogen, Waltham, MA, cat. 11765054), 100 U/mL penicillin-streptomycin (Invitrogen, cat. 15140122), and 2.5% Matrigel (Corning Inc., Corning, NY, cat. 354248) for the first three passages. […]

[1] = curve of first compound, second compound 0.1 µM
[2] = curve of first compound, second compound 0.316 µM
[3] = curve of first compound, second compound 1 µM
[4] = curve of first compound, second compound 3.16 µM
[5] = curve of first compound, second compound 10 µM
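Further: spheroids exposed to compounds for 7 days before readout.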
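Wherever viability, T/C is given: 100% = DMSO vehicle control wells.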

O=C(C=Cn1cnc(-c2cc(C(F)(F)F)cc(C(F)(F)F)c2)n1)NNc1cnccn1 + NC1CCC(NC2CC2c2ccccc2)CC1
pIC50 [1]: < 6.00
pIC50 [2]: < 6.00
pIC50 [3]: < 6.00
pIC50 [4]: < 6.00
pIC50 [5]: < 6.00
viability, T/C (second compound 0.1 µM, first compound 0.00316 µM): 102%
viability, T/C (second compound 0.1 µM, first compound 0.01 µM): 112%
viability, T/C (second compound 0.1 µM, first compound 0.0316 µM): 113%
viability, T/C (second compound 0.1 µM, first compound 0.1 µM): 114%
viability, T/C (second compound 0.1 µM, first compound 0.316 µM): 102%
viability, T/C (second compound 0.1 µM, first compound 1 µM): 96%
viability, T/C (second compound 0.316 µM, first compound 0.00316 µM): 95%
viability, T/C (second compound 0.316 µM, first compound 0.01 µM): 107%
viability, T/C (second compound 0.316 µM, first compound 0.0316 µM): 131%
viability, T/C (second compound 0.316 µM, first compound 0.1 µM): 106%
viability, T/C (second compound 0.316 µM, first compound 0.316 µM): 97.8%
viability, T/C (second compound 0.316 µM, first compound 1 µM): 81.3%
viability, T/C (second compound 1 µM, first compound 0.00316 µM): 103%
viability, T/C (second compound 1 µM, first compound 0.01 µM): 119%
viability, T/C (second compound 1 µM, first compound 0.0316 µM): 130%
viability, T/C (second compound 1 µM, first compound 0.1 µM): 113%
viability, T/C (second compound 1 µM, first compound 0.316 µM): 91.6%
viability, T/C (second compound 1 µM, first compound 1 µM): 81.8%
viability, T/C (second compound 3.16 µM, first compound 0.00316 µM): 112%
viability, T/C (second compound 3.16 µM, first compound 0.01 µM): 121%
viability, T/C (second compound 3.16 µM, first compound 0.0316 µM): 140%
viability, T/C (second compound 3.16 µM, first compound 0.1 µM): 116%
viability, T/C (second compound 3.16 µM, first compound 0.316 µM): 91.8%
viability, T/C (second compound 3.16 µM, first compound 1 µM): 82.5%
viability, T/C (second compound 10 µM, first compound 0.00316 µM): 120%
viability, T/C (second compound 10 µM, first compound 0.01 µM): 124%
viability, T/C (second compound 10 µM, first compound 0.0316 µM): 126%
viability, T/C (second compound 10 µM, first compound 0.1 µM): 113%
viability, T/C (second compound 10 µM, first compound 0.316 µM): 102%
viability, T/C (second compound 10 µM, first compound 1 µM): 95.9%

COc1cc(C2c3cc4c(cc3C(OC3OC5COC(C)OC5C(O)C3O)C3COC(=O)C23)OCO4)cc(OC)c1O (stereo unspecified) + NC1CC1c1ccc(-c2cccc(O)c2)cc1
pIC50 [1]: < 5.52
pIC50 [2]: < 5.52
pIC50 [3]: < 5.52
pIC50 [4]: < 5.52
pIC50 [5]: < 5.52
viability, T/C (second compound 0.1 µM, first compound 0.00949 µM): 107%
viability, T/C (second compound 0.1 µM, first compound 0.03 µM): 91.7%
viability, T/C (second compound 0.1 µM, first compound 0.0949 µM): 98%
viability, T/C (second compound 0.1 µM, first compound 0.3 µM): 88.7%
viability, T/C (second compound 0.1 µM, first compound 0.949 µM): 77.6%
viability, T/C (second compound 0.1 µM, first compound 3 µM): 76.9%
viability, T/C (second compound 0.316 µM, first compound 0.00949 µM): 103%
viability, T/C (second compound 0.316 µM, first compound 0.03 µM): 99.5%
viability, T/C (second compound 0.316 µM, first compound 0.0949 µM): 91.9%
viability, T/C (second compound 0.316 µM, first compound 0.3 µM): 76.7%
viability, T/C (second compound 0.316 µM, first compound 0.949 µM): 74.6%
viability, T/C (second compound 0.316 µM, first compound 3 µM): 79.7%
viability, T/C (second compound 1 µM, first compound 0.00949 µM): 92.8%
viability, T/C (second compound 1 µM, first compound 0.03 µM): 104%
viability, T/C (second compound 1 µM, first compound 0.0949 µM): 91.5%
viability, T/C (second compound 1 µM, first compound 0.3 µM): 92.2%
viability, T/C (second compound 1 µM, first compound 0.949 µM): 85.8%
viability, T/C (second compound 1 µM, first compound 3 µM): 76.5%
viability, T/C (second compound 3.16 µM, first compound 0.00949 µM): 87.9%
viability, T/C (second compound 3.16 µM, first compound 0.03 µM): 95.2%
viability, T/C (second compound 3.16 µM, first compound 0.0949 µM): 87.6%
viability, T/C (second compound 3.16 µM, first compound 0.3 µM): 87.5%
viability, T/C (second compound 3.16 µM, first compound 0.949 µM): 78.6%
viability, T/C (second compound 3.16 µM, first compound 3 µM): 79.3%
viability, T/C (second compound 10 µM, first compound 0.00949 µM): 97.2%
viability, T/C (second compound 10 µM, first compound 0.03 µM): 89.9%
viability, T/C (second compound 10 µM, first compound 0.0949 µM): 97%
viability, T/C (second compound 10 µM, first compound 0.3 µM): 83.9%
viability, T/C (second compound 10 µM, first compound 0.949 µM): 80.7%
viability, T/C (second compound 10 µM, first compound 3 µM): 70.4%

CC(C)CC(NC(=O)CNC(=O)c1cc(Cl)ccc1Cl)B1OC(=O)CC(CC(=O)O)(C(=O)O)O1 (stereo unspecified)
viability, T/C (compound 0.000316 µM): 97.9% and 109%
viability, T/C (compound 0.001 µM): 89.1% and 112%
viability, T/C (compound 0.00316 µM): 99.5% and 94.1%
viability, T/C (compound 0.01 µM): 84.9% and 83.3%
viability, T/C (compound 0.0316 µM): 84% and 76.2%
viability, T/C (compound 0.1 µM): 58.8% and 44.4%
pIC50 (curve of compound): < 7.00 and 7.07

Nc1ncn(C2CC(O)C(CO)S2)c(=O)n1 (stereo unspecified)
viability, T/C (compound 0.000949 µM): 106% and 96.8%
viability, T/C (compound 0.003 µM): 108% and 96.2%
viability, T/C (compound 0.00949 µM): 90.8% and 92%
viability, T/C (compound 0.03 µM): 80.2% and 82.5%
viability, T/C (compound 0.0949 µM): 89.9% and 81.5%
viability, T/C (compound 0.3 µM): 88.7% and 75.2%
pIC50 (curve of compound): < 6.52

Nc1ccn(C2OC(CO)C(O)C2(F)F)c(=O)n1 (stereo unspecified)
viability, T/C (compound 0.000949 µM): 82.7% and 61.8%
viability, T/C (compound 0.003 µM): 85.6% and 60.9%
viability, T/C (compound 0.00949 µM): 73% and 96.8%
viability, T/C (compound 0.03 µM): 73.7% and 58%
viability, T/C (compound 0.0949 µM): 71.6% and 64.1%
viability, T/C (compound 0.3 µM): 65.2% and 63.2%
pIC50 (curve of compound): < 6.52
